Measured values from patent US20250186323A1, “COMPOSITION FOR SKIN WHITENING COMPRISING CARVEDILOL” (GMEX (GLOBAL MEDICAL XYNAPSE), priority 2020, published 2025).

Columns and labels:
[1] = system: ex-vivo model of human skin tissue; test: Ex-vivo human skin tissue model stimulated by UV irradiation
From the text: To examine adaptation in actual clinical practice, an ex-vivo model of human skin tissue was stimulated by UV irradiation to induce melanin synthesis, and treated with carvedilol and cultured, and then a fragment was formed and subjected to Fontana-Masson staining.

tyrosinase = test: Tyrosinase activity in NHMs; format: cell-based, human; conditions: carvedilol 2-10 μM, 5 days (FIG. 1C)
Procedure: (§1) NHMs were treated with carvedilol at each concentration of 2 μM, 4 μM, 6 μM, 8 μM and 10 μM, cultured for 5 days, and then a cell growth rate, melanogenesis activity, tyrosinase activity, and the expression of a melanin synthesis-related protein were confirmed.

[2] = system: cAMP/PKA/CREB signaling pathway; test: Phospho-CREB and phospho-ERK expression in FSK-stimulated NHMs; format: cell-based, human; conditions: over time (FIG. 1D)
Procedure: After NHMs were stimulated with FSK and treated with carvedilol, the expression levels of phospho-CREB and phospho-ERK were measured, and an intracellular signaling pathway which regulates MITF transcription was investigated.

[3] = system: melanin synthesis-related protein; test: Expression of melanin synthesis-related protein in NHMs; format: cell-based, human; conditions: according to carvedilol treatment time (FIG. 1D)
From the text: […], and then a cell growth rate, melanogenesis activity, tyrosinase activity, and the expression of a melanin synthesis-related protein were confirmed.

MITF = MITF mRNA expression in NHMs; format: cell-based, human
[4] = system: normal human melanocytes (NHMs); test: Cell growth rate in normal human melanocytes treated with carvedilol; format: cell-based; conditions: cultured for 5 days (FIG. 1A)
Procedure: as §1

FSK-stimulated NHMs = test: Melanin production in FSK-stimulated NHMs; format: cell-based, human; conditions: NHMs after FSK treatment (FIG. 3A)
[5] = system: normal human melanocytes (NHMs); test: Melanin production (melanogenesis activity) in NHMs; format: cell-based; conditions: carvedilol 2-10 μM, 5 days (FIG. 1B)
Procedure: as §1

[6] = system: mouse melanocytes (mel-ab); test: Melanin production in mouse melanocytes (mel-ab); format: cell-based; conditions: carvedilol by concentration (FIG. 2B)
From the text: (§2) In addition to the result of Example 1 showing whitening activity in NHMs, the melanin inhibitory effect was confirmed by treating mouse melanocytes (mel-ab) with carvedilol.

[7] = system: mouse melanocytes (mel-ab); test: Cell growth rate in mouse melanocytes (mel-ab); format: cell-based; conditions: up to 8 μM carvedilol (FIG. 2A)
From the text: as §2

Row | melanin synthesis-related enzymes such as tyrosinase, TRP1 and DCT ([1]; UV-irradiated ex-vivo human skin, increased by UVR (FIG. 4C)) | tyrosinase activity (tyrosinase) | SMILES | melanosome level (Fontana-Masson staining) ([1]; UV-irradiated ex-vivo human skin, carvedilol treated (FIG. 4A)) | melanin index (proportion of Fontana-Masson-stained region) ([1]; UV-irradiated ex-vivo human skin, carvedilol treated (FIG. 4B)) | number of Melan-A (+) cells (melanocytes) ([1]; ex-vivo human skin, compared to UVR alone (FIG. 4D)) | HMB45(+) melanocytes indicating melanocyte activity ([1]; ex-vivo human skin, increased by UVR treatment (FIG. 4E)) | phospho-CREB expression [2] | phospho-ERK expression [2] | expression of a melanin synthesis-related protein [3] | mRNA level of MITF (MITF; two hours after carvedilol treatment (FIG. 3C)) | cell growth rate ([4]; 10 μM carvedilol) | cell growth rate ([4]; up to 8 μM carvedilol) | melanin production (FSK-stimulated NHMs) | melanin production [5] | melanin production [6] | cell growth rate [7] | MITF transcription (MITF; 10 μM FSK for 2 hours (FIG. 3B))
1 | reduced | inhibited | COc1ccccc1OCCNCC(O)COc1cccc2[nH]c3ccccc3c12 (centres unmarked) [carvedilol] | melanosome reduction | decrease | does not affect | reduced | reduced over time | no change | tends to decrease over time | maximally decreased | slightly reduced | no effect | inhibits melanin production | inhibited | effect of inhibiting melanin production | no effect | –
2 | – | – | C=C[C@@]1(C)CC(=O)[C@]2(O)[C@@]3(C)[C@@H](O)CCC(C)(C)[C@@H]3[C@H](O)[C@H](OC(C)=O)[C@@]2(C)O1 [FSK] | – | – | – | – | – | – | – | – | – | – | – | – | – | – | maximally increased
